According to publication PMC7028039, “Convergent evolution of the UbiA prenyltransferase family underlies the independent acquisition of furanocoumarins in plants” (The New Phytologist, 2019):

Legend:
FcPT1b = target: T1, FcPT1b (Ficus carica, UniProt A0A6S4PSN9); experiment: microsomal prenyltransferase assay, HPLC and LC-MS2 product identification; assay type: biochemical; details: 50 µM umbelliferone, 200 µM DMAPP, 10 mM MgCl2; product demethylsuberosin (DMS)
T1 construct: full CDS with transit peptide, pGWB502 (35S promoter), transient expression in Nicotiana benthamiana leaves, microsomes
T1 sequence (A0A6S4PSN9 1-422): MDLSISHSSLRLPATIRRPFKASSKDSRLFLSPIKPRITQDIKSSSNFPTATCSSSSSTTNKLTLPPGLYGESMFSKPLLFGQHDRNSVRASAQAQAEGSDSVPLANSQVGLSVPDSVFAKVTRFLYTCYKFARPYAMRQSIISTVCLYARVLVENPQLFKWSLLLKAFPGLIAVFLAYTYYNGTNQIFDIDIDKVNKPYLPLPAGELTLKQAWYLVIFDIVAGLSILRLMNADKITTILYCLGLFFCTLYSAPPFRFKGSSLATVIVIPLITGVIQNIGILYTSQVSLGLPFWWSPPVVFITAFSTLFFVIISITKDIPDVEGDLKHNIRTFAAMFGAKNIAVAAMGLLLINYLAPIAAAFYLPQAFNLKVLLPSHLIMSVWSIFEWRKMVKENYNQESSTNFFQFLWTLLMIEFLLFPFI

[1] = system: CC(C)=CCOP(=O)(O)OP(=O)(O)O; experiment: cells, lysate or membranes; details: co-substrate umbelliferone, Mg2+, 28 °C
FcPT1a = FcPT1a (Ficus carica, UniProt A0A6S4Q0J8); details: read-out: apparent Km; co-substrate DMAPP; Mg2+; 28 °C
Procedure: microsomal prenyltransferase assay, HPLC-PDA, nonlinear fit on FcPT1a | The apparent K m values of FcPT1a for umbelliferone and DMAPP were determined

`CC(C)=CCOP(=O)(O)OP(=O)(O)O` [dimethylallyl diphosphate] was tested, and the “microsomal prenyltransferase assay, HPLC and LC-MS2 product identification” value (FcPT1b) was “UDT reaction mixtures composed of microsomes containing recombinant FcPT1a/b proteins yielded an enzymatic reaction product”.
For FcPT1a (Ficus carica), the Km [1] was 17 ± 1 µM.
With `O=c1ccc2ccc(O)cc2o1` [umbelliferone] the “microsomal prenyltransferase assay, HPLC and LC-MS2 product identification” value (FcPT1b) was “recombinant FcPT1a/b proteins yielded an enzymatic reaction product concomitant with the consumption of umbelliferone” and the Km (FcPT1a) was 35 ± 4 µM.
